These results are taken from patent US8022225B2, “Triazole derivative” (Taisho Pharmaceutical Co., Ltd, priority 2004, dated 2011).

One may read the inhibition as the drop in the measured response relative to a control, in per cent.

Test [1] addresses T1, human Edg-1(S1P1) (Homo sapiens, UniProt P21453).
T1 construct: expressed in transfected cells; host or cells: HEK-293
Nature of the test: Membrane system binding test: inhibition of [33P]-S1P binding to the membrane fraction of Edg-1(S1P1) gene transferred HEK-293 cells. As to conditions: 10 μM compound, [33P]-S1P 0.1 nM, membrane fraction of Edg-1(S1P1) gene transferred HEK-293 cells; for inhibition at 10 µM: read-out: Membrane system binding test % inhibition (10 μM). A digest of the protocol: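 Compound tested at 10^−5 M final (0.1% DMSO) for blocking 0.1 nM [^33P]-S1P binding to S1P1-expressing HEK-293 membranes, 30 °C, 1 h. Radioactivity retained on filters was counted, and percent inhibition derived relative to vehicle binding, correcting for the background of non-transfected HEK-293 membranes.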

Test [2] deals with T1, human Edg-1(S1P1). Nature of the test: Cell system binding test: inhibition of [3H]-S1P binding to Edg-1(S1P1) gene transferred HEK-293 cells. As to conditions: 10 μM compound, [3H]-S1P 10 nM, read-out: Cell system binding test % inhibition (10 μM).

The structures appear in SMILES notation.

T1 sequence (P21453 whole entry): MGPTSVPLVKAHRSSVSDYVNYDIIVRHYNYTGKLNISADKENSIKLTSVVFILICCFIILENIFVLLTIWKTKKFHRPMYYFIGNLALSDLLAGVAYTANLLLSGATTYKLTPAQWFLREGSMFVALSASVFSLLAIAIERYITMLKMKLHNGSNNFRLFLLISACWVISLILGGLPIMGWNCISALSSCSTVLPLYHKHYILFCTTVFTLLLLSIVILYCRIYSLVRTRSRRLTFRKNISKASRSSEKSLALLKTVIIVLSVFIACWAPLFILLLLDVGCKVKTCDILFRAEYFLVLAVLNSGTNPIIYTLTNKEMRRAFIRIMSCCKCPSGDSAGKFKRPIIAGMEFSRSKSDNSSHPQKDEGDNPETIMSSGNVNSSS

In the case of `CCn1c(SCc2ccc(NC(C)=O)cc2)nnc1[C@@H](C)NS(=O)(=O)c1ccc(Cl)cc1` [Compound 82], the values for the inhibition at 10 µM on human Edg-1(S1P1) [1] and on human Edg-1(S1P1) [2] were 90.4% and 84.7%, respectively.
For `CCn1c(SCC(N)=O)nnc1[C@@H](C)NS(=O)(=O)c1ccc(Cl)cc1` [Compound 83] the same measures were 99.5% and 85.6%.
Take `CCn1c(SCCn2ccnc2)nnc1[C@@H](C)NS(=O)(=O)c1ccc(Cl)cc1` [Compound 84]: the inhibition at 10 µM is 100% on human Edg-1(S1P1) [1] and 87.9% on human Edg-1(S1P1) [2].
In the case of `CCn1c(SCCc2c[nH]c3ccccc23)nnc1[C@@H](C)NS(=O)(=O)c1ccc(Cl)cc1` [Compound 85], the inhibition at 10 µM is 106% on human Edg-1(S1P1) [1] and 90.4% at human Edg-1(S1P1) [2].
`CCn1c(SCCC23CC4CC(CC(C4)C2)C3)nnc1[C@@H](C)NS(=O)(=O)c1ccc(Cl)cc1` [Compound 86]: the values for the inhibition at 10 µM at human Edg-1(S1P1) [1] and on human Edg-1(S1P1) [2] were 110% and 93.4%, respectively.
As for `CCn1c(SCCCC(C)=O)nnc1[C@@H](C)NS(=O)(=O)c1ccc(Cl)cc1` [Compound 87], the values for the inhibition at 10 µM at human Edg-1(S1P1) [1] and at human Edg-1(S1P1) [2] were 84.7% and 82.7%, respectively.
For the molecule `CCn1c(SCCC(C)(C)C)nnc1[C@@H](C)NS(=O)(=O)c1ccc(Cl)cc1` [Compound 88], the inhibition at 10 µM on human Edg-1(S1P1) [1] amounted to 97.1%; on human Edg-1(S1P1) [2], 87.6%.
Turning to `C=CCSc1nnc(C(C)NS(=O)(=O)c2ccc(Cl)cc2)n1C` (centres unmarked) [Compound 91], the inhibition at 10 µM worked out at 47.4% at human Edg-1(S1P1) [1] and 72.9% at human Edg-1(S1P1) [2].
For the molecule `C=CCSc1nnc([C@@H](C)NS(=O)(=O)c2ccc(Cl)cc2)n1CCC` [Compound 95], the inhibition at 10 µM was found to be 60.2% at human Edg-1(S1P1) [1] and 94% on human Edg-1(S1P1) [2].
As for `C=CCSc1nnc([C@@H](C)NS(=O)(=O)c2ccc(Cl)cc2)n1C(C)C` [Compound 97], the inhibition at 10 µM at human Edg-1(S1P1) [1] stood at 52.5%; on human Edg-1(S1P1) [2] it was 88.9%.
In the case of `C=CCSc1nnc(CNS(=O)(=O)c2ccc(Cl)cc2)n1CC` [Compound 104], the inhibition at 10 µM worked out at 42.1% on human Edg-1(S1P1) [1] and 99.5% on human Edg-1(S1P1) [2].
On to `C=CCSc1nnc([C@@H](CC)NS(=O)(=O)c2ccc(Cl)cc2)n1C` [Compound 106], for which, on human Edg-1(S1P1) [1], the “Membrane system binding test % inhibition (10 μM)” value is on record as 52.5%. The inhibition at 10 µM at human Edg-1(S1P1) [2] came to 86.9%.
Regarding `C=CCSc1nnc(C(CC)NS(=O)(=O)c2ccc(Cl)cc2)n1CC` (centres unmarked) [Compound 109], the figures for the inhibition at 10 µM at human Edg-1(S1P1) [1] and at human Edg-1(S1P1) [2] were 100% and 93%, respectively.
Take `C=CCSc1nnc([C@@H](CC)NS(=O)(=O)c2ccc(Cl)cc2)n1CCC` [Compound 113]: the “Membrane system binding test % inhibition (10 μM)” value at human Edg-1(S1P1) [1] was 46.3%. Also, the inhibition at 10 µM on human Edg-1(S1P1) [2] is 84%.
As to `C=CCSc1nnc([C@@H](CC)NS(=O)(=O)c2ccc(Cl)cc2)n1C(C)C` [Compound 117], the inhibition at 10 µM was found to be 83.8% on human Edg-1(S1P1) [1] and 93.6% on human Edg-1(S1P1) [2].
In the case of `C=CCSc1nnc([C@@H](Cc2ccccc2)NS(=O)(=O)c2ccc(Cl)cc2)n1C` [Compound 134], the values for the inhibition at 10 µM on human Edg-1(S1P1) [1] and on human Edg-1(S1P1) [2] were 84.8% and 88.8%, respectively.
As to `C=CCSc1nnc(C(Cc2ccccc2)NS(=O)(=O)c2ccc(Cl)cc2)n1C` (centres unmarked) [Compound 135], the inhibition at 10 µM at human Edg-1(S1P1) [1] was 96.9%; at human Edg-1(S1P1) [2] it was 86.7%.
For the molecule `C=C(C)CSc1nnc(C(Cc2ccccc2)NS(=O)(=O)c2ccc(Cl)cc2)n1C` (centres unmarked) [Compound 136], the values for the inhibition at 10 µM on human Edg-1(S1P1) [1] and at human Edg-1(S1P1) [2] were 94.7% and 103%, respectively.
As for `Cn1c(SCc2ccc(Cl)c(Cl)c2)nnc1C(Cc1ccccc1)NS(=O)(=O)c1ccc(Cl)cc1` (centres unmarked) [Compound 137], the inhibition at 10 µM worked out at 57.1% at human Edg-1(S1P1) [1] and 99% on human Edg-1(S1P1) [2].
With `C=CCSc1nnc([C@@H](Cc2ccccc2)NS(=O)(=O)c2ccc(Cl)cc2)n1CC` [Compound 138], the inhibition at 10 µM came out at 102% at human Edg-1(S1P1) [1] and 94.7% at human Edg-1(S1P1) [2].
The like results for `CCCSc1nnc([C@@H](Cc2ccccc2)NS(=O)(=O)c2ccc(Cl)cc2)n1CC` [Compound 139] were, in that order, 107% and 91%.
On to `C=CCSc1nnc([C@@H](Cc2ccccc2)NS(=O)(=O)c2ccc(Cl)cc2)n1CCC` [Compound 141], for which the inhibition at 10 µM at human Edg-1(S1P1) [1] was 79.5%; on human Edg-1(S1P1) [2] it was 94.8%.
As for `C=CCSc1nnc([C@@H](Cc2ccccc2)NS(=O)(=O)c2ccc(Cl)cc2)n1C(C)C` [Compound 143], the inhibition at 10 µM at human Edg-1(S1P1) [1] stood at 88.7%; on human Edg-1(S1P1) [2], 96%.
Consider `C=CCSc1nnc(C(Cc2ccccc2)NS(=O)(=O)c2ccc(F)cc2)n1CC` (centres unmarked) [Compound 169], for which the inhibition at 10 µM on human Edg-1(S1P1) [1] amounted to 72.9%; on human Edg-1(S1P1) [2], 67.5%.
For `CCn1c(OC)nnc1[C@@H](C)NS(=O)(=O)c1ccc(Cl)cc1` [Compound 185], the inhibition at 10 µM on human Edg-1(S1P1) [1] worked out at 86.6%; at human Edg-1(S1P1) [2], 87.4%.
`CCOc1nnc([C@@H](C)NS(=O)(=O)c2ccc(Cl)cc2)n1CC` [Compound 186]: the figures for the inhibition at 10 µM on human Edg-1(S1P1) [1] and on human Edg-1(S1P1) [2] were 94.5% and 89.3%, respectively.
As for `CCn1c(OCCN(C)C)nnc1[C@@H](C)NS(=O)(=O)c1ccc(Cl)cc1` [Compound 187], the inhibition at 10 µM at human Edg-1(S1P1) [1] came out at 46.4%; on human Edg-1(S1P1) [2], 82.9%.
As for `CCn1c(OCCCN(C)C)nnc1[C@@H](C)NS(=O)(=O)c1ccc(Cl)cc1` [Compound 188], the inhibition at 10 µM was 46.3% on human Edg-1(S1P1) [1] and 82% at human Edg-1(S1P1) [2].
In the case of `CCn1c(OCCCCCCN(C)C)nnc1[C@@H](C)NS(=O)(=O)c1ccc(Cl)cc1` [Compound 189], the values for the inhibition at 10 µM on human Edg-1(S1P1) [1] and at human Edg-1(S1P1) [2] were 107% and 105%, respectively.
Take `CCn1c(OCCO)nnc1[C@@H](C)NS(=O)(=O)c1ccc(Cl)cc1` [Compound 190]: the inhibition at 10 µM worked out at 41.3% on human Edg-1(S1P1) [1] and 91.1% at human Edg-1(S1P1) [2].
The like results for `CCn1c(OCCCO)nnc1[C@@H](C)NS(=O)(=O)c1ccc(Cl)cc1` [Compound 191] were, in that order, 88.3% and 97.1%.
The like results for `CCCCCCCCCCCCCCCCOc1nnc([C@@H](C)NS(=O)(=O)c2ccc(Cl)cc2)n1CC` [Compound 192] were, in that order, 105% and 75.5%.
As to `CCn1c(OC)nnc1[C@H](C)NS(=O)(=O)c1cccc(Cl)c1` [Compound 193], the inhibition at 10 µM at human Edg-1(S1P1) [1] turned out to be 64.4%; at human Edg-1(S1P1) [2], 108%.
For `CCCOc1nnc([C@@H](C)NS(=O)(=O)c2ccc(OC)cc2)n1CC` [Compound 195] the same measures were 91.2% and 103%.
Regarding `CCCOc1nnc([C@@H](C)NS(=O)(=O)c2ccc(C)cc2)n1CC` [Compound 196], the inhibition at 10 µM on human Edg-1(S1P1) [1] stood at 88.5%; on human Edg-1(S1P1) [2], 106%.
Take `CCn1c(OC)nnc1[C@H](C)NS(=O)(=O)c1ccc(NC(C)=O)cc1` [Compound 198]: the values for the inhibition at 10 µM at human Edg-1(S1P1) [1] and at human Edg-1(S1P1) [2] were 46.7% and 92.5%, respectively.
On to `CCn1c(OC)nnc1[C@@H](C)NS(=O)(=O)c1ccc(C(C)=O)cc1` [Compound 199], for which the inhibition at 10 µM on human Edg-1(S1P1) [1] was 54.9%; on human Edg-1(S1P1) [2] it was 93%.
For `CCn1c(OC)nnc1[C@@H](C)NS(=O)(=O)c1ccc(Br)cc1` [Compound 200] the same measures were 93.3% and 97.4%.
As to `CCn1c(OC)nnc1[C@H](C)NS(=O)(=O)c1ccc(C(C)(C)C)cc1` [Compound 201], the inhibition at 10 µM on human Edg-1(S1P1) [1] was determined as 45.3%; at human Edg-1(S1P1) [2], 92.6%.
In the case of `CCCCS(=O)(=O)N[C@H](C)c1nnc(OC)n1CC` [Compound 202], the figures for the inhibition at 10 µM on human Edg-1(S1P1) [1] and on human Edg-1(S1P1) [2] were 60.3% and 96.6%, respectively.
On to `CCn1c(OC)nnc1[C@@H](C)NS(=O)(=O)c1cc(Br)c(Br)s1` [Compound 203], for which the inhibition at 10 µM on human Edg-1(S1P1) [1] amounted to 88.3%; on human Edg-1(S1P1) [2], 97.9%.
For `CCn1c(OC)nnc1[C@H](C)NS(=O)(=O)c1ccccc1Br` [Compound 204] the same measures were 45.4% and 97.8%.
As to `CCCCOc1ccc(S(=O)(=O)N[C@@H](C)c2nnc(OC)n2CC)cc1` [Compound 205], the inhibition at 10 µM was 47.4% on human Edg-1(S1P1) [1] and 99.6% on human Edg-1(S1P1) [2].
With `CCn1c(OC)nnc1[C@@H](C)NS(=O)(=O)c1cccc(Br)c1` [Compound 206], the inhibition at 10 µM on human Edg-1(S1P1) [1] worked out at 86.2%; at human Edg-1(S1P1) [2], 103%.
Regarding `CCCCc1ccc(S(=O)(=O)N[C@H](C)c2nnc(OC)n2CC)cc1` [Compound 207], the inhibition at 10 µM at human Edg-1(S1P1) [1] worked out at 43.5%; at human Edg-1(S1P1) [2], 95.8%.
For `CCn1c(OC)nnc1[C@@H](C)NS(=O)(=O)c1ccc(Br)s1` [Compound 208] the same measures were 93% and 99.9%.
Take `CCn1c(OC)nnc1[C@H](C)NS(=O)(=O)c1ccc(Cl)c([N+](=O)[O-])c1` [Compound 209]: the inhibition at 10 µM at human Edg-1(S1P1) [1] is 104%; on human Edg-1(S1P1) [2], 91.4%.
With `CCn1c(OC)nnc1[C@@H](C)NS(=O)(=O)CCCCl` [Compound 210], the inhibition at 10 µM at human Edg-1(S1P1) [1] worked out at 46.6%; on human Edg-1(S1P1) [2], 91.8%.
For `CCn1c(OC)nnc1[C@@H](C)NS(=O)(=O)c1ccc(NC(C)=O)c(Cl)c1` [Compound 211], the inhibition at 10 µM is 46.9% at human Edg-1(S1P1) [1] and 93.9% at human Edg-1(S1P1) [2].
Turning to `CCn1c(OC)nnc1[C@@H](C)NS(=O)(=O)c1ccccc1C#N` [Compound 212], the inhibition at 10 µM worked out at 45.6% at human Edg-1(S1P1) [1] and 92.4% on human Edg-1(S1P1) [2].
For `CCn1c(OC)nnc1[C@@H](C)NS(=O)(=O)c1cccc(C#N)c1` [Compound 213], the inhibition at 10 µM is 66.1% on human Edg-1(S1P1) [1] and 96.2% on human Edg-1(S1P1) [2].
`CCn1c(OC)nnc1[C@@H](C)NS(=O)(=O)c1sc2ccc(Cl)cc2c1C` [Compound 214]: the inhibition at 10 µM turned out to be 59.3% at human Edg-1(S1P1) [1] and 96.8% on human Edg-1(S1P1) [2].
